Measured values taken from patent US10626125B2, “1,1,1-trifluoro-3-hydroxypropan-2-yl carbamate derivatives as MAGL inhibitors” (PFIZER INC., priority 2017, dated 2020).
Like-named read-outs stand apart in the source and are kept apart here.

Assays:
[1] = target: T1, human recombinant Monoacylglycerol Lipase (Homo sapiens, UniProt Q99685); experiment: MAGL inactivation (kinact/KI from enzyme progress curves, T=0 min protocol); details: from plot of Kobs vs. compound concentration, geometric mean of 2-5 determinations (b: ≥6)
T1 sequence (Q99685 1-303): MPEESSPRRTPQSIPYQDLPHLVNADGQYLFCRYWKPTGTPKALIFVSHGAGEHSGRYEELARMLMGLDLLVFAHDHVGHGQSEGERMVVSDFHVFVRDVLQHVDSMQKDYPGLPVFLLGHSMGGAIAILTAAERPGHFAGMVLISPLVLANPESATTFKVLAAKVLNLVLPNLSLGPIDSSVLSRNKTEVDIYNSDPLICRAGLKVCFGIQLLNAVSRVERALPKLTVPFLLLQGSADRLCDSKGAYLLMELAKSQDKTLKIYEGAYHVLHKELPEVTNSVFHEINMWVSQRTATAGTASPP

[2] = target: T1, human recombinant Monoacylglycerol Lipase; experiment: MAGL enzymatic assay (IC50; 7-HCA substrate added at T=0 min or T=30 min); type: biochemical
[3] = MAGL (T = 30 min) IC50, substrate 7-HCA added after 30 minute incubation (T=30 min), geometric mean of 2-5 determinations unless otherwise indicated
[4] = substrate 7-HCA added immediately (T=0 min), geometric mean of 2-5 determinations unless otherwise indicated, read-out: MAGL (T = 0 min) IC50
[5] = read-out: MAGL (T=30 min) IC50, 30 minute incubation of compound with MAGL enzyme before addition of 7-HCA substrate
[6] = MAGL (T=30 min) IC50, 30 minute incubation of compound with MAGL enzyme before addition of 7-HCA substrate

Row | IC50 [2, 5] [nM] | SMILES | also measured
1 | 3 | O=C(OC(CO)C(F)(F)F)N1CCC2(CCC(n3cc(C(F)(F)F)cn3)CO2)CC1 (single isomer, unassigned) [diastereomer of Example 69] | 
2 | 15 | O=C(OC(CO)C(F)(F)F)N1CCC2(CCC(c3ccc(F)cn3)CO2)CC1 (single isomer, unassigned) [diastereomer of Example 74] | 
3 | 31 | O=C(O[C@H](CO)C(F)(F)F)N1CCC2(CC1)CC(c1ccc(C(F)F)cn1)CO2 (single isomer, unassigned) [diastereomer of Example 39] | 
4 | 74 | N#Cc1cccc(C2CCOC3(CCN(C(=O)OC(CO)C(F)(F)F)CC3)C2)c1 (single isomer, unassigned) [diastereomer of Example 73] | 
5 | 3 | O=C(OC(CO)C(F)(F)F)N1CCC2(CCC(n3cc(C(F)F)cn3)CO2)CC1 (single isomer, unassigned) [diastereomer of Example 75] | 
6 | 19 | O=C(OC(CO)C(F)(F)F)N1CCC2(CC1)CC(c1cc(C(F)F)ccn1)CO2 (single isomer, unassigned) [diastereomer of Example 35] | 
7 | 4 | CC(C)(C)c1ccn(C2COC3(CCN(C(=O)OC(CO)C(F)(F)F)CC3)C2)n1 (single isomer, unassigned) [diastereomer of Example 52] | 
8 | 284 | CN(C1CCOC2(CCN(C(=O)OC(CO)C(F)(F)F)CC2)C1)S(=O)(=O)CC1CC1 (single isomer, unassigned) [diastereomer of Example 50] | 
9 | 9 | O=C(OC(CO)C(F)(F)F)N1CCC2(CC1)CC(c1ccc(C(F)(F)F)cn1)CO2 (single isomer, unassigned) [diastereomer of Example 40] | 
10 | 49 | O=C(O[C@H](CO)C(F)(F)F)N1CCC2(CC1)CC(n1ncc3ccccc31)CO2 (single isomer, unassigned) [diastereomer of Example 62] | 
11 | 20 | O=C(OC(CO)C(F)(F)F)N1CCC2(CC1)CC(c1ccccn1)CO2 (single isomer, unassigned) [diastereomer of Example 41] | 
12 | 336 | N#Cc1ccc(C2COC3(CCN(C(=O)OC(CO)C(F)(F)F)CC3)C2)nc1 (single isomer, unassigned) [diastereomer of Example 38] | 
13 | 20 | Cc1cn(C2COC3(CCN(C(=O)OC(CO)C(F)(F)F)CC3)C2)nc1C (single isomer, unassigned) [diastereomer of Example 54] | 
14 | 9 | O=C(OC(CO)C(F)(F)F)N1CCC2(CC1)CC(n1ccc(C(F)(F)F)n1)CO2 (single isomer, unassigned) [diastereomer of Example 53] | 
15 | 14 | O=C(OC(CO)C(F)(F)F)N1CCC2(CCC(n3cc(F)cn3)CO2)CC1 (single isomer, unassigned) [diastereomer of Example 70] | 

Second part, the molecule before the results:

Row | SMILES | IC50 [2, 5] [nM] | also measured
16 | O=C(O[C@H](CO)C(F)(F)F)N1CCC2(CC1)CC(c1ccc(F)cc1F)CO2 (single isomer, unassigned) [Example 33] |  | MAGL kinact/KI [1]: 53400 1/s per M; IC50 [2, 3]: 1 nM; IC50 [2, 4]: 10 nM
17 | CN(C(=O)CC1CC1)C1CC2(CCN(C(=O)O[C@H](CO)C(F)(F)F)CC2)C1 [Example 43, (2R)-1,1,1-trifluoro-3-hydroxypropan-2-yl 2-[(cyclopropylacetyl)(methyl)amino]-7-azaspiro[3.5]nonane-7-carboxylate] |  | MAGL kinact/KI [1]: 18500 1/s per M; IC50 [2, 3]: 2 nM; IC50 [2, 4]: 29 nM
18 | Cc1cnn(C2COC3(CCN(C(=O)O[C@H](CO)C(F)(F)F)CC3)C2)c1 (single isomer, unassigned) [Example 24] |  | MAGL kinact/KI [1]: 7840 1/s per M; IC50 [2, 3]: 12 nM; IC50 [2, 4]: 115 nM
19 | O=C(OC(CO)C(F)(F)F)N1CCC2(CC1)CC(c1ccc(F)cc1)CO2 (single isomer, unassigned) [diastereomer of Example 34] | 1 | 
20 | N#Cc1cccc(C2COC3(CCN(C(=O)O[C@H](CO)C(F)(F)F)CC3)C2)c1F (single isomer, unassigned) [diastereomer of Example 71] |  | IC50 [2, 6]: 8 nM
21 | O=C(O[C@H](CO)C(F)(F)F)N1CCC2(CC1)CC(n1cc(C(F)F)cn1)CO2 (single isomer, unassigned) [diastereomer of Example 20] |  | IC50 [2, 6]: 65 nM
22 | N#Cc1cc(C2COC3(CCN(C(=O)OC(CO)C(F)(F)F)CC3)C2)ccc1F (single isomer, unassigned) [diastereomer of Example 28] | 14 | 
23 | O=C(O[C@H](CO)C(F)(F)F)N1CCC2(CC1)CC(c1c(F)cccc1F)CO2 (single isomer, unassigned) [diastereomer of Example 32] |  | IC50 [2, 6]: 1 nM
24 | O=C(OC(CO)C(F)(F)F)N1CCC2(CC1)CC(c1ccc(F)cc1F)CO2 (single isomer, unassigned) [diastereomer of Example 33] | 2 | 
25 | N#Cc1ccc(C2COC3(CCN(C(=O)O[C@H](CO)C(F)(F)F)CC3)C2)c(F)c1 (single isomer, unassigned) [diastereomer of Example 72] |  | IC50 [2, 6]: 12 nM
26 | O=C(OC(CO)C(F)(F)F)N1CCC2(CC1)CC(n1cc(Cl)cn1)CO2 (single isomer, unassigned) [diastereomer of Example 22] | 23 | 
27 | N#Cc1ccc(C2COC3(CCN(C(=O)O[C@H](CO)C(F)(F)F)CC3)C2)cc1 (single isomer, unassigned) [diastereomer of Example 31] | 23 | 
28 | O=C(O[C@H](CO)C(F)(F)F)N1CCC2(CC1)C[C@H](n1cc(F)cn1)CO2 [Example 10, (2R)-1,1,1-Trifluoro-3-hydroxypropan-2-yl (3S)-3-(4-fluoro-1H-pyrazol-1-yl)-1-oxa-8-azaspiro[4.5]decane-8-carboxylate] |  | IC50 [2, 3]: 49 nM; IC50 [2, 4]: 563 nM
29 | N#Cc1ccc([C@@H]2COC3(CCN(C(=O)O[C@H](CO)C(F)(F)F)CC3)C2)cc1F [diastereomer of Example 27, (2R)-1,1,1-trifluoro-3-hydroxypropan-2-yl (3R)-3-(4-cyano-3-fluorophenyl)-1-oxa-8-azaspiro[4.5]decane-8-carboxylate] |  | IC50 [2, 6]: 17 nM
30 | O=C(O[C@H](CO)C(F)(F)F)N1CCC2(CC1)C[C@@H](n1cc(F)cn1)CO2 [Example 11, (2R)-1,1,1-Trifluoro-3-hydroxypropan-2-yl (3R)-3-(4-fluoro-1H-pyrazol-1-yl)-1-oxa-8-azaspiro[4.5]decane-8-carboxylate] |  | IC50 [2, 3]: 15 nM; IC50 [2, 4]: 211 nM
31 | O=C(O[C@H](CO)C(F)(F)F)N1CCC2(CC1)CC(Oc1ccc(C(F)F)nc1)C2 [Example 19, (2R)-1,1,1-Trifluoro-3-hydroxypropan-2-yl 2-{[6-(difluoromethyl)pyridin-3-yl]oxy}-7-azaspiro[3.5]nonane-7-carboxylate] |  | IC50 [2, 3]: 1 nM; IC50 [2, 4]: 8 nM
32 | Cc1cnn(C2COC3(CCN(C(=O)O[C@H](CO)C(F)(F)F)CC3)C2)c1 (single isomer, unassigned) [diastereomer of Example 24] | 60 | 
33 | CC(C)(C)c1cnn(C2COC3(CCN(C(=O)OC(CO)C(F)(F)F)CC3)C2)c1 (single isomer, unassigned) [diastereomer of Example 21] | 7 | 
34 | CN(C1CCOC2(CCN(C(=O)O[C@H](CO)C(F)(F)F)CC2)C1)S(=O)(=O)CC1CC1 (single isomer, unassigned) [Example 50] |  | IC50 [2, 3]: 67 nM; IC50 [2, 4]: 752 nM
